Measured values taken from patent US6355799B1, “Substituted benzene compounds, process for their preparation, and herbicidal and defoliant compositions containing them” (ISK Americas Incorporated, priority 1997, dated 2002).

Assays:
Type in all cases: in vivo
[1] = tested on: barnyardgrass (Echinochloa crus-galli, ECHCG); test: Pre-emerge test, greenhouse herbicide activity screening; details: pre-emerge; for Pre-emerge Herbicidal Activity ECHCG (phytotoxicity rating, scale 0-100): rated 14 days after application, 0 = no damage, 100 = complete death
Summary of the method: (§1)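 Compounds in acetone were track-sprayed at 187 l/ha, 15–1000 g ai/ha, onto sandy loam pots. Pre-emerge seeds were sown one day before spraying, with surface watering afterwards. Post-emerge plants were at the 2–3 leaf stage and sprayed with 0.25% v/v non-ionic surfactant. Injury was rated 0–100 at 14 days.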

[2] = tested on: green foxtail (Setaria viridis, SETVI); test: as above; details: pre-emerge; for Pre-emerge Herbicidal Activity SETVI (phytotoxicity rating, scale 0-100): rated 14 days after application, 0 = no damage, 100 = complete death
Summary of the method: as §1

[3] = tested on: ivyleaf morningglory (Ipomoea hederacea, IPOHE); test: as above; details: pre-emerge; for Pre-emerge Herbicidal Activity IPOHE (phytotoxicity rating, scale 0-100): rated 14 days after application, 0 = no damage, 100 = complete death
Summary of the method: as §1

[4] = tested on: johnsongrass (Sorghum halepense, SORHA); test: as above; details: pre-emerge; for Pre-emerge Herbicidal Activity SORHA (phytotoxicity rating, scale 0-100): rated 14 days after application, 0 = no damage, 100 = complete death
Summary of the method: as §1

[5] = tested on: lambsquarters (Chenopodium album, CHEAL); test: as above; details: pre-emerge; for Pre-emerge Herbicidal Activity CHEAL (phytotoxicity rating, scale 0-100): rated 14 days after application, 0 = no damage, 100 = complete death
Summary of the method: as §1

[6] = tested on: large crabgrass (Digitaria sanguinalis, DIGSA); test: as above; details: pre-emerge; for Pre-emerge Herbicidal Activity DIGSA (phytotoxicity rating, scale 0-100): rated 14 days after application, 0 = no damage, 100 = complete death
Summary of the method: as §1

[7] = tested on: sicklepod (Cassia obtusifolia, CASOB); test: as above; details: pre-emerge; for Pre-emerge Herbicidal Activity CASOB (phytotoxicity rating, scale 0-100): rated 14 days after application, 0 = no damage, 100 = complete death
Summary of the method: as §1

[8] = tested on: velvetleaf (Abutilon theophrasti, ABUTH); test: as above; details: pre-emerge; for Pre-emerge Herbicidal Activity ABUTH (phytotoxicity rating, scale 0-100): rated 14 days after application, 0 = no damage, 100 = complete death
Summary of the method: as §1

[9] = tested on: barnyardgrass (Echinochloa crus-galli, ECHCG); test: Post-emerge test, greenhouse herbicide activity screening; details: Echinochloa crus-galli, post-emergence, 336 h, read-out: Post-emerge Herbicidal Activity ECHCG; for pest or weed control at 63 g/ha: 63 g ai/ha; for pest or weed control at 250 g/ha: 250 g ai/ha
Summary of the method: (§2)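 Fourteen days after spraying, crop and weed injury was graded visually from 0, no effect, to 100, every plant dead. Test substances were dissolved in acetone and applied at 15–1000 g ai/ha with a flat-fan nozzle. Application was either pre-emergence, one day after sowing, or post-emergence at the 2–3 leaf stage.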

[10] = tested on: green foxtail (Setaria viridis, SETVI); test: as above; details: Setaria viridis, post-emergence, 336 h, read-out: Post-emerge Herbicidal Activity SETVI; for pest or weed control at 63 g/ha: 63 g ai/ha; for pest or weed control at 250 g/ha: 250 g ai/ha
Summary of the method: as §2

[11] = tested on: ivyleaf morningglory (Ipomoea hederacea, IPOHE); test: as above; details: Ipomoea, post-emergence, 336 h, read-out: Post-emerge Herbicidal Activity IPOHE; for pest or weed control at 63 g/ha: 63 g ai/ha; for pest or weed control at 250 g/ha: 250 g ai/ha
Summary of the method: as §2

[12] = tested on: johnsongrass (Sorghum halepense, SORHA); test: as above; details: Sorghum halepense, post-emergence, 336 h, read-out: Post-emerge Herbicidal Activity SORHA; for pest or weed control at 63 g/ha: 63 g ai/ha; for pest or weed control at 250 g/ha: 250 g ai/ha
Summary of the method: as §2

[13] = tested on: lambsquarters (Chenopodium album, CHEAL); test: as above; details: Chenopodium album, post-emergence, 336 h, read-out: Post-emerge Herbicidal Activity CHEAL; for pest or weed control at 63 g/ha: 63 g ai/ha; for pest or weed control at 250 g/ha: 250 g ai/ha
Summary of the method: as §2

[14] = tested on: sicklepod (Cassia obtusifolia, CASOB); test: as above; details: Senna obtusifolia, post-emergence, 336 h, phytotoxicity rating 0-100 (0 no damage, 100 complete death), 14 days after application, read-out: Post-emerge Herbicidal Activity CASOB
Summary of the method: as §2

[15] = tested on: velvetleaf (Abutilon theophrasti, ABUTH); test: as above; details: Abutilon theophrasti, post-emergence, 336 h, read-out: Post-emerge Herbicidal Activity ABUTH; for pest or weed control at 63 g/ha: 63 g ai/ha; for pest or weed control at 250 g/ha: 250 g ai/ha
Summary of the method: as §2

[16] = phytotoxicity rating 0-100 (0 no damage, 100 complete death), 14 days after application
[17] = post-emerge, phytotoxicity rating 0-100 at 14 days after application

COc1c(Cl)cc(F)c(-n2c(=O)cc(C(F)(F)F)n(C)c2=O)c1[N+](=O)[O-] [Compound 1-5, 3-(4-chloro-6-fluoro-3-methoxy-2-nitrophenyl)-1-methyl-6-trifluoromethyl-2,4(1H, 3H)-pyrimidinedione]
Pre-emerge Herbicidal Activity ECHCG (phytotoxicity rating, scale 0-100) ([1]; 63 g ai/ha): 0
Pre-emerge Herbicidal Activity ECHCG (phytotoxicity rating, scale 0-100) ([1]; 250 g ai/ha): 0
Pre-emerge Herbicidal Activity SETVI (phytotoxicity rating, scale 0-100) ([2]; 63 g ai/ha): 0
Pre-emerge Herbicidal Activity SETVI (phytotoxicity rating, scale 0-100) ([2]; 250 g ai/ha): 90
Pre-emerge Herbicidal Activity IPOHE (phytotoxicity rating, scale 0-100) ([3]; 63 g ai/ha): 0
Pre-emerge Herbicidal Activity IPOHE (phytotoxicity rating, scale 0-100) ([3]; 250 g ai/ha): 10
Pre-emerge Herbicidal Activity SORHA (phytotoxicity rating, scale 0-100) ([4]; 63 g ai/ha): 0
Pre-emerge Herbicidal Activity SORHA (phytotoxicity rating, scale 0-100) ([4]; 250 g ai/ha): 20
Pre-emerge Herbicidal Activity CHEAL (phytotoxicity rating, scale 0-100) ([5]; 63 g ai/ha): 60
Pre-emerge Herbicidal Activity CHEAL (phytotoxicity rating, scale 0-100) ([5]; 250 g ai/ha): 100
Pre-emerge Herbicidal Activity DIGSA (phytotoxicity rating, scale 0-100) ([6]; 63 g ai/ha): 0
Pre-emerge Herbicidal Activity DIGSA (phytotoxicity rating, scale 0-100) ([6]; 250 g ai/ha): 70
Pre-emerge Herbicidal Activity CASOB (phytotoxicity rating, scale 0-100) ([7]; 63 g ai/ha): 0
Pre-emerge Herbicidal Activity CASOB (phytotoxicity rating, scale 0-100) ([7]; 250 g ai/ha): 0
Pre-emerge Herbicidal Activity ABUTH (phytotoxicity rating, scale 0-100) ([8]; 63 g ai/ha): 30
Pre-emerge Herbicidal Activity ABUTH (phytotoxicity rating, scale 0-100) ([8]; 250 g ai/ha): 100
pest or weed control at 63 g/ha [9, 16]: 0%
pest or weed control at 250 g/ha [9, 16]: 0%
pest or weed control at 63 g/ha [10, 16]: 0%
pest or weed control at 250 g/ha [10, 16]: 0%
pest or weed control at 63 g/ha [11, 16]: 0%
pest or weed control at 250 g/ha [11, 16]: 70%
pest or weed control at 63 g/ha [12, 16]: 0%
pest or weed control at 250 g/ha [12, 16]: 0%
pest or weed control at 63 g/ha [13, 16]: 0%
pest or weed control at 250 g/ha [13, 16]: 50%
pest or weed control at 63 g/ha ([14]; 63 g ai/ha): 0%
pest or weed control at 250 g/ha ([14]; 250 g ai/ha): 30%
pest or weed control at 63 g/ha [15, 16]: 10%
pest or weed control at 250 g/ha [15, 16]: 60%

COc1c(Cl)cc(F)c(-c2nn(C)c(C(F)(F)F)c2Cl)c1N [Compound 7-2, 4-chloro-3-(2-amino-4-chloro-6-fluoro3-metoxyphenyl)-1-methyl-5-trifluoromethyl-1H-pyrazole]
pest or weed control at 63 g/ha ([1]; Echinochloa crus-galli, pre-emergence, 336 h, rate 63 g ai/ha, phytotoxicity rating 0-100 at 14 days after application, read-out: Pre-emerge Herbicidal Activity ECHCG): 70%
pest or weed control at 250 g/ha ([1]; Echinochloa crus-galli, pre-emergence, 336 h, rate 250 g ai/ha, phytotoxicity rating 0-100 at 14 days after application, read-out: Pre-emerge Herbicidal Activity ECHCG): 100%
pest or weed control at 63 g/ha ([2]; Setaria viridis, pre-emergence, 336 h, rate 63 g ai/ha, phytotoxicity rating 0-100 at 14 days after application, read-out: Pre-emerge Herbicidal Activity SETVI): 95%
pest or weed control at 250 g/ha ([2]; Setaria viridis, pre-emergence, 336 h, rate 250 g ai/ha, phytotoxicity rating 0-100 at 14 days after application, read-out: Pre-emerge Herbicidal Activity SETVI): 100%
pest or weed control at 63 g/ha ([3]; Ipomoea, pre-emergence, 336 h, rate 63 g ai/ha, phytotoxicity rating 0-100 at 14 days after application, read-out: Pre-emerge Herbicidal Activity IPOHE): 60%
pest or weed control at 250 g/ha ([3]; Ipomoea, pre-emergence, 336 h, rate 250 g ai/ha, phytotoxicity rating 0-100 at 14 days after application, read-out: Pre-emerge Herbicidal Activity IPOHE): 80%
pest or weed control at 63 g/ha ([4]; Sorghum halepense, pre-emergence, 336 h, rate 63 g ai/ha, phytotoxicity rating 0-100 at 14 days after application, read-out: Pre-emerge Herbicidal Activity SORHA): 95%
pest or weed control at 250 g/ha ([4]; Sorghum halepense, pre-emergence, 336 h, rate 250 g ai/ha, phytotoxicity rating 0-100 at 14 days after application, read-out: Pre-emerge Herbicidal Activity SORHA): 100%
pest or weed control at 63 g/ha ([5]; Chenopodium album, pre-emergence, 336 h, rate 63 g ai/ha, phytotoxicity rating 0-100 at 14 days after application, read-out: Pre-emerge Herbicidal Activity CHEAL): 100%
pest or weed control at 250 g/ha ([5]; Chenopodium album, pre-emergence, 336 h, rate 250 g ai/ha, phytotoxicity rating 0-100 at 14 days after application, read-out: Pre-emerge Herbicidal Activity CHEAL): 100%
pest or weed control at 63 g/ha ([6]; Digitaria sanguinalis, pre-emergence, 336 h, rate 63 g ai/ha, phytotoxicity rating 0-100 at 14 days after application, read-out: Pre-emerge Herbicidal Activity DIGSA): 100%
pest or weed control at 250 g/ha ([6]; Digitaria sanguinalis, pre-emergence, 336 h, rate 250 g ai/ha, phytotoxicity rating 0-100 at 14 days after application, read-out: Pre-emerge Herbicidal Activity DIGSA): 100%
pest or weed control at 63 g/ha ([7]; Senna obtusifolia, pre-emergence, 336 h, rate 63 g ai/ha, phytotoxicity rating 0-100 at 14 days after application, read-out: Pre-emerge Herbicidal Activity CASOB): 30%
pest or weed control at 250 g/ha ([7]; Senna obtusifolia, pre-emergence, 336 h, rate 250 g ai/ha, phytotoxicity rating 0-100 at 14 days after application, read-out: Pre-emerge Herbicidal Activity CASOB): 30%
pest or weed control at 63 g/ha ([8]; Abutilon theophrasti, pre-emergence, 336 h, rate 63 g ai/ha, phytotoxicity rating 0-100 at 14 days after application, read-out: Pre-emerge Herbicidal Activity ABUTH): 95%
pest or weed control at 250 g/ha ([8]; Abutilon theophrasti, pre-emergence, 336 h, rate 250 g ai/ha, phytotoxicity rating 0-100 at 14 days after application, read-out: Pre-emerge Herbicidal Activity ABUTH): 100%
pest or weed control at 63 g/ha [9, 17]: 30%
pest or weed control at 250 g/ha [9, 17]: 90%
pest or weed control at 63 g/ha [10, 17]: 20%
pest or weed control at 250 g/ha [10, 17]: 50%
pest or weed control at 63 g/ha [11, 17]: 80%
pest or weed control at 250 g/ha [11, 17]: 100%
pest or weed control at 63 g/ha [12, 17]: 20%
pest or weed control at 250 g/ha [12, 17]: 40%
pest or weed control at 63 g/ha [13, 17]: 95%
pest or weed control at 250 g/ha [13, 17]: 100%
pest or weed control at 63 g/ha [15, 17]: 100%
pest or weed control at 250 g/ha [15, 17]: 100%
